From patent US9718828B2 (MERCK SHARP & DOHME CORP., priority 2011, dated 2017) come the findings set out here.

Counter-ions that a name gives are not always drawn.

Sequence of Btk enzyme (His-Btk) (Q06187 whole entry): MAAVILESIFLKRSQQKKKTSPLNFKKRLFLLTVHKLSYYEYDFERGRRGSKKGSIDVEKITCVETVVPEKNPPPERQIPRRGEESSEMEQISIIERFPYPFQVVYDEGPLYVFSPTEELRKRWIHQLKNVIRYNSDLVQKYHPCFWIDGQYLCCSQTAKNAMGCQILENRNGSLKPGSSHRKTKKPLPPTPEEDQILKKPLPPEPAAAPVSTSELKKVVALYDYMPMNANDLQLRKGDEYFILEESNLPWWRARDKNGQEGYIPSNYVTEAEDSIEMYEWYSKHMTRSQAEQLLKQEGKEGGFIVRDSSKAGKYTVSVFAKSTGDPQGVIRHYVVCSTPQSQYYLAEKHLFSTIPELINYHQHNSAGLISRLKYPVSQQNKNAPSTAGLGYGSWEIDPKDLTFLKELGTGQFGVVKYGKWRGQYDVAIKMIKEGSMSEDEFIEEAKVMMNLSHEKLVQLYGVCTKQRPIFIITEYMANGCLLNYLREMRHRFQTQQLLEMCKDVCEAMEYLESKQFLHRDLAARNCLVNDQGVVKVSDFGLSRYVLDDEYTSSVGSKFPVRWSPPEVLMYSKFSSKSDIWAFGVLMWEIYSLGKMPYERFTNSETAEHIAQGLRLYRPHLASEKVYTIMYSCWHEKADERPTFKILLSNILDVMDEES

The first test concerns the target Btk enzyme (His-Btk) (Homo sapiens (Human), UniProt Q06187). The test is described as follows: Btk enzyme activity, IMAP fluorescence polarization assay (Assay Method A).
Details: not given
The term EC50 denotes the concentration needed to bring the measured effect to its halfway point. Consider `COCCC(=O)N1CCC[C@@H](c2nc(-c3ccc(C(=O)Nc4ccccn4)c(F)c3)c3c(N)nccn23)C1` [Example 282, (R)-4-(8-amino-3-(1-(3-methoxypropanoyl)piperidin-3-yl)imidazo[1,5-a]pyrazin-1-yl)-2-fluoro-N-(pyridin-2-yl)benzamide, TFA salt], for which the EC50 is < 0.01 µM.

For `COCCC(=O)N1CCC[C@@H](c2nc(-c3ccc(C(=O)Nc4ccccn4)cc3C)c3c(N)nccn23)C1` [Example 285, 4-(8-amino-3-((R)-1-(3-methoxypropanoyl)piperidin-3-yl)imidazo[1,5-a]pyrazin-1-yl)-3-methyl-N-(pyridin-2-yl)benzamide, TFA salt], the EC50 lay in the range of 0.01 to 0.1 µM.

In turn, `COCCC(=O)N1CCC[C@@H](c2nc(-c3ccc(C(=O)Nc4ccccn4)c(C)c3)c3c(N)nccn23)C1` [Example 286, (R)-4-(8-amino-3-(1-(3-methoxypropanoyl)piperidin-3-yl)imidazo[1,5-a]pyrazin-1-yl)-2-methyl-N-(pyridin-2-yl)benzamide, TFA salt] came in with an EC50 of 0.01 to 0.1 µM.

For `COCCC(=O)N1CCC[C@@H](c2nc(-c3ccc(C(=O)Nc4ccccn4)nc3)c3c(N)nccn23)C1` [Example 287, (R)-5-(8-amino-3-(1-(3-methoxypropanoyl)piperidin-3-yl)imidazo[1,5-a]pyrazin-1-yl)-N-(pyridin-2-yl)picolinamide, TFA salt], the EC50 lay within 0.01 to 0.1 µM.

The molecule `COCCC(=O)N1CCC[C@@H](c2nc(-c3ccc(C(=O)Nc4ccccn4)cn3)c3c(N)nccn23)C1` [Example 288, (R)-6-(8-amino-3-(1-(3-methoxypropanoyl)piperidin-3-yl)imidazo[1,5-a]pyrazin-1-yl)-N-(pyridin-2-yl) nicotinamide] showed a concentration for a half-maximal effect (EC50) of 0.1 to 1 µM.

In the case of `CC1(C(=O)N2CCC[C@@H](c3nc(-c4ccc(C(=O)Nc5cnccn5)cc4)c4c(N)nccn34)C2)COC1` [Example 290, (R)-4-(8-amino-3-(1-(3-methyloxetane-3-carbonyl)piperidin-3-yl)imidazo[1,5-a]pyrazin-1-yl)-N-(pyrazin-2-yl)benzamide], the concentration giving a half-maximal response (EC50) was 0.01 to 0.1 µM.

As to `COCCCNC(=O)c1cnc(N)c2c(-c3ccc(C(=O)Nc4cc(C(F)(F)F)ccn4)cc3)nc(C)n12` [Example 291, 8-amino-N-(3-methoxypropyl)-3-methyl-1-(4-(4-(trifluoromethyl)pyridin-2-ylcarbamoyl)phenyl)imidazo[1,5-a]pyrazine-5-carboxamide], the EC50 is 0.1 to 1 µM.

In the case of `Cc1nc(-c2ccc(C(=O)Nc3cc(C(F)(F)F)ccn3)cc2)c2c(N)ncc(C(=O)NCc3ccccc3)n12` [Example 292, 8-amino-N-benzyl-3-methyl-1-(4-(4-(trifluoromethyl)pyridin-2-ylcarbamoyl)phenyl)imidazo[1,5-a]pyrazine-5-carboxamide], the EC50 is 0.1 to 1 µM.

With `Cc1nc(-c2ccc(C(=O)Nc3cc(C(F)(F)F)ccn3)cc2)c2c(N)ncc(C(=O)N(C)C)n12` [Example 293, 8-amino-N,N,3-trimethyl-1-(4-(4-(trifluoromethyl)pyridin-2-ylcarbamoyl)phenyl)imidazo[1,5-a]pyrazine-5-carboxamide], the EC50 was ≥ 1 µM.

As for `CCCc1ccnc(NC(=O)c2ccc(-c3nc(C)n4c(C(=O)NCCCOC)cnc(N)c34)cc2)c1` [Example 294, 8-amino-N-(3-methoxypropyl)-3-methyl-1-(4-(4-propylpyridin-2-ylcarbamoyl)phenyl)imidazo[1,5-a]pyrazine-5-carboxamide], the EC50 lay within 0.1 to 1 µM.

Turning to `Cc1nc(-c2ccc(C(=O)Nc3cc(C(F)(F)F)ccn3)cc2)c2c(N)ncc(C(=O)NC3CCN(C)CC3)n12` [Example 295, 8-amino-3-methyl-N-(1-methylpiperidin-4-yl)-1-(4-(4-(trifluoromethyl)pyridin-2-ylcarbamoyl)phenyl)imidazo[1,5-a]pyrazine-5-carboxamide], the half-maximal effective concentration (EC50) is 0.1 to 1 µM.

For `Cc1nc(-c2ccc(C(=O)Nc3cc(C(F)(F)F)ccn3)cc2)c2c(N)ncc(C(=O)NCc3cccnc3)n12` [Example 296, 8-amino-3-methyl-N-(pyridin-3-ylmethyl)-1-(4-(4-(trifluoromethyl)pyridin-2-ylcarbamoyl)phenyl)imidazo[1,5-a]pyrazine-5-carboxamide], the concentration giving a half-maximal response (EC50) lay in the range of 0.1 to 1 µM.

As to `Cc1nc(-c2ccc(C(=O)Nc3cc(C(F)(F)F)ccn3)cc2)c2c(N)ncc(C(=O)NCc3cnco3)n12` [Example 297, 8-amino-3-methyl-N-(oxazol-5-ylmethyl)-1-(4-(4-(trifluoromethyl)pyridin-2-ylcarbamoyl)phenyl)imidazo[1,5-a]pyrazine-5-carboxamide], the half-maximal effective concentration (EC50) lay within 0.1 to 1 µM.

Regarding `CCOC(=O)c1cnc(N)c2c(-c3ccc(C(=O)Nc4cc(C(F)(F)F)ccn4)cc3)nc([C@@H]3CCCN(C(=O)C4(C)COC4)C3)n12` [Example 299, (R)-ethyl 8-amino-3-(1-(3-methyloxetane-3-carbonyl)piperidin-3-yl)-1-(4-(4-(trifluoromethyl)pyridine-2-ylcarbamoyl)phenyl)imidazo[1,5-a]pyrazine-5-carboxylate], the EC50 was < 0.01 µM.

With `CC1(C(=O)N2CCC[C@@H](c3nc(-c4ccc(C(=O)Nc5cc(C(F)(F)F)ccn5)cc4)c4c(N)ncc(C5CC5)n34)C2)COC1` [Example 303, (R)-4-(8-amino-5-cyclopropyl-3-(1-(3-methyloxetane-3-carbonyl)piperidin-3-yl)imidazo[1,5-a]pyrazin-1-yl)-N-(4-(trifluoromethyl)pyridin-2-yl)benzamide], the concentration for a half-maximal effect (EC50) is 0.01 to 0.1 µM.

Staying with this test, now noted: read-out: EC50 Btk activity values - Assay Method A.
Take `Nc1ncc(Cl)n2c([C@@H]3CCCNC3)nc(-c3ccc(C(=O)Nc4cc(C(F)(F)F)ccn4)cc3)c12` [Example 307]: the EC50 was < 0.01 µM.

The same test, now with this note: read-out: EC50 Btk activity values - Assay Method A; IMAP-FP, 60 min pre-incubation, 5 μM ATP.
For `COCCC(=O)N1CCC[C@@H](c2nc(-c3ccc(C(=O)Nc4ccccn4)cc3C(F)(F)F)c3c(N)nccn23)C1` [Example 283, 4-(8-amino-3-((R)-1-(3-methoxypropanoyl)piperidin-3-yl)imidazo[1,5-a]pyrazin-1-yl)-N-(pyridin-2-yl)-3-(trifluoromethyl)benzamide, TFA salt], the EC50 is ≥ 1 µM.

Staying with this test, now noted: read-out: EC50 Btk activity values - Assay Method A; IMAP-FP, 60 min pre-incubation, 5 μM ATP; class 100-1000 is given as ≧100 nM-<1 μM.
On to `COCCC(=O)N1CCC[C@@H](c2nc(-c3ccc(C(=O)Nc4ccccn4)cc3F)c3c(N)nccn23)C1` [Example 284, 4-(8-amino-3-((R)-1-(3-methoxypropanoyl)piperidin-3-yl)imidazo[1,5-a]pyrazin-1-yl)-3-fluoro-N-(pyridin-2-yl)benzamide, TFA salt], for which the half-maximal effective concentration (EC50) is < 0.01 µM.

In the case of `Nc1nccn2c([C@@H]3CCCN(C(=O)[C@H](O)CO)C3)nc(-c3ccc(C(=O)Nc4cc(C5CC5)ccn4)cc3)c12` [Example 289, 4-(8-amino-3-((R)-1-((R)-2,3-dihydroxypropanoyl)piperidin-3-yl)imidazo[1,5-a]pyrazin-1-yl)-N-(4-cyclopropylpyridin-2-yl)benzamide], the EC50 was < 0.01 µM.

For `CCCc1ccnc(NC(=O)c2ccc(-c3nc(C4CCOCC4)n4c(Cl)cnc(N)c34)cc2)c1` [Example 298, 4-(8-amino-5-chloro-3-(tetrahydro-2H-pyran-4-yl)imidazo[1,5-a]pyrazin-1-yl)-N-(4-propylpyridin-2-yl)benzamide], the EC50 was < 0.01 µM.

For the molecule `CC1(C(=O)N2CCC[C@@H](c3nc(-c4ccc(C(=O)Nc5cc(C(F)(F)F)ccn5)cc4)c4c(N)ncc(C(=O)O)n34)C2)COC1` [Example 300, (R)-8-amino-3-(1-(3-methyloxetane-3-carbonyl)piperidin-3-yl)-1-(4-(4-(trifluoromethyl)pyridin-2-ylcarbamoyl)phenyl)imidazo[1,5-a]pyrazine-5-carboxylic acid], the EC50 is < 0.01 µM.

Turning to `CC1(C(=O)N2CCC[C@@H](c3nc(-c4ccc(C(=O)Nc5cc(C(F)(F)F)ccn5)cc4)c4c(N)ncc(Cl)n34)C2)COC1` [Example 301, (R)-4-(8-amino-5-chloro-3-(1-(3-methyloxetane-3-carbonyl)piperidin-3-yl)imidazo[1,5-a]pyrazin-1-yl)-N-(4-(trifluoromethyl)pyridin-2-yl)benzamide], the EC50 was < 0.01 µM.

For the molecule `C=Cc1cnc(N)c2c(-c3ccc(C(=O)Nc4cc(C(F)(F)F)ccn4)cc3)nc([C@@H]3CCCN(C(=O)C4(C)COC4)C3)n12` [Example 302, (R)-4-(8-amino-3-(1-(3-methyloxetane-3-carbonyl)piperidin-3-yl)-5-vinylimidazo[1,5-a]pyrazin-1-yl)-N-(4-(trifluoromethyl)pyridin-2-yl)benzamide], the EC50 is < 0.01 µM.

In the case of `Cc1cnc(N)c2c(-c3ccc(C(=O)Nc4cc(C(F)(F)F)ccn4)cc3)nc([C@@H]3CCCN(C(=O)C4(C)COC4)C3)n12` [Example 306, (R)-4-(8-amino-5-methyl-3-(1-(3-methyloxetane-3-carbonyl)piperidin-3-yl)imidazo[1,5-a]pyrazin-1-yl)-N-(4-(trifluoromethyl)pyridin-2-yl)benzamide], the 50% effective concentration (EC50) was < 0.01 µM.

Turning to `CCc1cnc(N)c2c(-c3ccc(C(=O)Nc4cc(C(F)(F)F)ccn4)cc3)nc([C@@H]3CCCN(C(=O)C4(C)COC4)C3)n12` [Example 308, (R)-4-(8-amino-5-ethyl-3-(1-(3-methyloxetane-3-carbonyl)piperidin-3-yl)imidazo[1,5-a]pyrazin-1-yl)-N-(4-(trifluoromethyl)pyridin-2-yl)benzamide], the 50% effective concentration (EC50) was < 0.01 µM.

Turning to `CC1(C(=O)N2CCC[C@@H](c3nc(-c4ccc(C(=O)Nc5cc(C(F)(F)F)ccn5)cc4)c4c(N)ncc(/C=C/c5ccccc5)n34)C2)COC1` [Example 309, (R,E)-4-(8-amino-3-(1-(3-methyloxetane-3-carbonyl)piperidin-3-yl)-5-styrylimidazo[1,5-a]pyrazin-1-yl)-N-(4-(trifluoromethyl)pyridin-2-yl)benzamide], the concentration giving a half-maximal response (EC50) was < 0.01 µM.

Turning to `COCCC(=O)N1CCC[C@@H](c2nc(-c3ccc(C(=O)Nc4cc(C(F)(F)F)ccn4)cc3)c3c(N)ncc(/C=C/c4ccccc4)n23)C1` [Example 310, (R,E)-4-(8-amino-3-(1-(3-methoxypropanoyl)piperidin-3-yl)-5-styrylimidazo[1,5-a]pyrazin-1-yl)-N-(4-(trifluoromethyl)pyridin-2-yl)benzamide], the EC50 was < 0.01 µM.
